Source: ChEMBL document CHEMBL5500370, “Discovery of potent and novel dual NAMPT/BRD4 inhibitors for efficient treatment of hepatocellular carcinoma” (Eur J Med Chem, 2024)

What was measured:
Hep 3B2 [1] = test: cells; details: Homo sapiens, Hep3B, 120 h
[2] = target: Nicotinamide phosphoribosyltransferase (Homo sapiens, UniProt P43490); test: Inhibition of recombinant NAMPT (unknown origin) by fluorescence based assay
[3] = target: Bromodomain-containing protein 4 (Homo sapiens, UniProt O60885); test: Inhibition of BRD4 (unknown origin) incubated for 120 mins by TR-FRET assay
HCCLM3 [4] = test: Antiproliferative activity against human HCCLM3 cells incubated for 120 hrs in presence of FK866 by MTT assay; assay type: functional, cell-based; details: HCCLM3, 120 h
Hep 3B2 [5] = test: Induction of cell cycle arrest at G0/G1 phase in human Hep3B cells at 10 uM measured after 72 hrs by PI/RNase staining based flow cytometry (reference value: 56.73 %); assay type: functional
Hep 3B2 [6] = test: Antiproliferative activity against human Hep3B cells measured after 72 hrs; assay type: functional, cell-based
Hep 3B2 [7] = test: Induction of cell cycle arrest at S phase in human Hep3B cells at 10 uM measured after 72 hrs by PI/RNase staining based flow cytometry (reference value: 31.90 %); assay type: functional
Hep 3B2 [8] = test: Induction of apoptosis in human Hep3B cells assessed as viable cells at 10 uM measured after 72 hrs by Annexin V-FITC/PI staining based flow cytometry (reference value: 94.08 %); assay type: functional
Hep 3B2 [9] = test: Induction of apoptosis in human Hep3B cells assessed as necrotic cells at 10 uM measured after 72 hrs by Annexin V-FITC/PI staining based flow cytometry (reference value: 2.74 %); assay type: functional
Hep 3B2 [10] = test: Induction of apoptosis in human Hep3B cells assessed as early apoptotic cells at 10 uM measured after 72 hrs by Annexin V-FITC/PI staining based flow cytometry (reference value: 2.13 %); assay type: functional
Huh-7 [11] = test: Antiproliferative activity against human Huh-7 cells incubated for 120 hrs in presence of FK866 by MTT assay; assay type: functional, cell-based; details: Huh-7, 120 h
Hep 3B2 [12] = test: Synergistic antiproliferative activity against human Hep3B cells measured after 72 hrs in presence of FK866; assay type: functional, cell-based
[13] = Antiproliferative activity against human LX2 cells incubated for 120 hrs in presence of FK866 by MTT assay; assay type: toxicity, cell-based; details: LX-2 cells
HCCLM3 [14] = test: Antitumor activity against human HCCLM3 cells xenografted in BALB/c nude mouse at 60 mg/kg, ip for 27 days relative to control; assay type: functional; details: time 27 day
Hep 3B2 [15] = test: Induction of cell cycle arrest at G2/M phase in human Hep3B cells at 10 uM measured after 72 hrs by PI/RNase staining based flow cytometry (reference value: 11.37 %); assay type: functional
HCCLM3 [16] = test: cells; details: Homo sapiens, HCCLM3, 120 h
Huh-7 [17] = test: cells; details: Homo sapiens, Huh-7, 120 h
[18] = Antiproliferative activity against human LX2 cells incubated for 120 hrs by MTT assay; assay type: toxicity, cell-based; details: LX-2 cells
Hep 3B2 [19] = test: Induction of apoptosis in human Hep3B cells assessed as late apoptotic cells at 10 uM measured after 72 hrs by Annexin V-FITC/PI staining based flow cytometry (reference value: 1.05 %); assay type: functional
Huh-7 [20] = test: Antiproliferative activity against human Huh-7 cells incubated for 120 hrs in presence of JQ1 by MTT assay; assay type: functional, cell-based; details: Huh-7, 120 h
Hep 3B2 [21] = test: Synergistic antiproliferative activity against human Hep3B cells measured after 72 hrs in presence of JQ1; assay type: functional, cell-based
[22] = Antiproliferative activity against human LX2 cells incubated for 120 hrs in presence of JQ1 by MTT assay; assay type: toxicity, cell-based; details: LX-2 cells
HCCLM3 [23] = test: Antiproliferative activity against human HCCLM3 cells incubated for 120 hrs in presence of JQ1 by MTT assay; assay type: functional, cell-based; details: HCCLM3, 120 h

Sequence of Nicotinamide phosphoribosyltransferase (P43490 whole entry): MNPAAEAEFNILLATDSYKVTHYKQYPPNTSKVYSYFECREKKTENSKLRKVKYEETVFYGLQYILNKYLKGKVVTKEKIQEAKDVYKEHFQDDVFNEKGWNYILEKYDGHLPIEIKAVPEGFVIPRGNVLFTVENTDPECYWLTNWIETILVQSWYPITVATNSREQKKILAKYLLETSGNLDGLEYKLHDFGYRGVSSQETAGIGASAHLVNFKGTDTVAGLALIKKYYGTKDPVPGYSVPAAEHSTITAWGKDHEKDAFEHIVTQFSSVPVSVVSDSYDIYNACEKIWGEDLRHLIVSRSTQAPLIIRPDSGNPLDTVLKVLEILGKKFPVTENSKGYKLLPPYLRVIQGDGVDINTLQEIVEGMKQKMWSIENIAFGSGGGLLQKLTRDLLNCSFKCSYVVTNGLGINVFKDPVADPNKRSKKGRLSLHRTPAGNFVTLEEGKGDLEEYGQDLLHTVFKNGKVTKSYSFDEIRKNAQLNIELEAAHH

In the case of `Cc1sc2c(c1C)C(c1ccc(Cl)cc1)=N[C@@H](CC(=O)NCCCCNC(=O)/C=C/c1cccnc1)c1nnc(C)n1-2`, the IC50 (Hep 3B2 [1]) is reported as 9090 nM, the IC50 [2] is reported as 10 nM and the IC50 [3] is reported as 127 nM.
Compound `Cc1sc2c(c1C)C(c1ccc(Cl)cc1)=N[C@@H](CC(=O)Nc1ccc(NC(=O)/C=C/c3cccnc3)cc1)c1nnc(C)n1-2` has an IC50 (Hep 3B2 [1]) of 24700 nM, an IC50 [2] of 456 nM and an IC50 [3] of over 1000 nM.
`Cc1sc2c(c1C)C(c1ccc(Cl)cc1)=N[C@@H](CC(=O)N1CCC(CNC(=O)/C=C/c3cccnc3)CC1)c1nnc(C)n1-2` showed an IC50 (Hep 3B2 [1]) of 5730 nM, an IC50 [2] of over 1000 nM and an IC50 [3] of 141 nM.
Compound `Cc1sc2c(c1C)C(c1ccc(Cl)cc1)=N[C@@H](CC(=O)N1CCC(CCCNC(=O)/C=C/c3cccnc3)CC1)c1nnc(C)n1-2` has an IC50 (Hep 3B2 [1]) of 4820 nM, an IC50 [2] of 165 nM and an IC50 [3] of 615 nM.
For `Cc1sc2c(c1C)C(c1ccc(Cl)cc1)=N[C@@H](CC(=O)NCCNC(=O)/C=C/c1cccnc1)c1nnc(C)n1-2`, the IC50 (Hep 3B2 [1]) was 12900 nM, the IC50 [2] was 410 nM and the IC50 [3] was 50 nM.
With `Cc1sc2c(c1C)C(c1ccc(Cl)cc1)=N[C@@H](CC(=O)N1CCC(NC(=O)/C=C/c3cccnc3)CC1)c1nnc(C)n1-2` the IC50 (Hep 3B2 [1]) was 5390 nM, the IC50 [2] was over 1000 nM and the IC50 [3] was 276 nM.
Compound `Cc1sc2c(c1C)C(c1ccc(Cl)cc1)=N[C@@H](CC(=O)OC(C)(C)C)c1nnc(C)n1-2` has an IC50 (HCCLM3 [4]) of 400 nM, an IC50 (Hep 3B2 [1]) of 5000 nM and an Activity (Hep 3B2 [5]) of 73.49%. It also gave an IC50 (Hep 3B2 [6]) of 5000 nM, an Activity (Hep 3B2 [7]) of 17.92% and an Activity (Hep 3B2 [8]) of 74.38%. For the same compound, the Activity (Hep 3B2 [9]) was 3.54%, the Activity (Hep 3B2 [10]) was 16.25% and the IC50 (Huh-7 [11]) was 670 nM. For the same compound, the IC50 (Hep 3B2 [12]) was 1550 nM, the IC50 at 120 h [13] was under 32 nM and the TGI (HCCLM3 [14]) was 51.08%. For the same compound, the Activity (Hep 3B2 [15]) was 8.59%, the IC50 (HCCLM3 [16]) was 86200 nM and the IC50 (Huh-7 [17]) was 62800 nM. For the same compound, the IC50 at 120 h [18] was under 32 nM and the Activity (Hep 3B2 [19]) was 5.83%.
Work on `O=C(/C=C/c1cccnc1)NCCCCC1CCN(C(=O)c2ccccc2)CC1` [DAPORINAD] yielded an IC50 (Hep 3B2 [1]) of 53700 nM, an Activity (Hep 3B2 [5]) of 63.07% and an IC50 (Huh-7 [20]) of 670 nM. It also gave an IC50 (Hep 3B2 [21]) of 1550 nM, an IC50 (Hep 3B2 [6]) of 53700 nM and an Activity (Hep 3B2 [7]) of 28.62%. It also gave a viability at 10 µM (Hep 3B2 [8]; Homo sapiens, Hep3B, read-out: Activity) of 86.9%, an Activity (Hep 3B2 [9]) of 3.67% and an Activity (Hep 3B2 [10]) of 5.13%. For the same compound, the inhibition in vivo at 60 mg/kg (HCCLM3 [14]; Mus musculus, HCCLM3, 648 h, read-out: TGI) was 50.1%, the IC50 at 120 h [22] was under 32 nM and the Activity (Hep 3B2 [15]) was 8.31%. The IC50 (HCCLM3 [16]) was 1010 nM, the IC50 (Huh-7 [17]) was 2120 nM and the IC50 at 120 h [18] was 210 nM. It also gave an IC50 (HCCLM3 [23]) of 400 nM and an Activity (Hep 3B2 [19]) of 4.26%.
`Cc1sc2c(c1C)C(c1ccc(Cl)cc1)=N[C@@H](CC(=O)Nc1ccc(CCNC(=O)/C=C/c3cccnc3)cc1)c1nnc(C)n1-2` showed an IC50 (Hep 3B2 [1]) of 11700 nM, an IC50 [2] of 17 nM and an IC50 [3] of over 1000 nM.
With `Cc1sc2c(c1C)C(c1ccc(Cl)cc1)=N[C@@H](CC(=O)N1CCC(CCCCNC(=O)/C=C/c3cccnc3)CC1)c1nnc(C)n1-2` the IC50 (Hep 3B2 [1]) was 8080 nM, the IC50 [2] was 35 nM and the IC50 [3] was over 1000 nM.
For `Cc1sc2c(c1C)C(c1ccc(Cl)cc1)=N[C@@H](CC(=O)NCCCCCCNC(=O)/C=C/c1cccnc1)c1nnc(C)n1-2`, the IC50 (Hep 3B2 [1]) was 8140 nM, the IC50 [2] was 12 nM and the IC50 [3] was 153 nM.
For `Cc1sc2c(c1C)C(c1ccc(Cl)cc1)=N[C@@H](CC(=O)N1CCC(CCNC(=O)/C=C/c3cccnc3)CC1)c1nnc(C)n1-2`, the IC50 (Hep 3B2 [1]) was 6260 nM, the IC50 [2] was 87 nM and the IC50 [3] was 180 nM.
Compound `Cc1sc2c(c1C)C(c1ccc(Cl)cc1)=N[C@@H](CC(=O)NCCOCCNC(=O)/C=C/c1cccnc1)c1nnc(C)n1-2` has an IC50 (Hep 3B2 [1]) of 27300 nM, an IC50 [2] of 167 nM and an IC50 [3] of 315 nM.
With `Cc1sc2c(c1C)C(c1ccc(Cl)cc1)=N[C@@H](CC(=O)NCc1ccc(NC(=O)/C=C/c3cccnc3)cc1)c1nnc(C)n1-2` the IC50 (Hep 3B2 [1]) was 9560 nM, the IC50 [2] was 309 nM and the IC50 [3] was 319 nM.
With `Cc1sc2c(c1C)C(c1ccc(Cl)cc1)=N[C@@H](CC(=O)NCc1ccc(CNC(=O)/C=C/c3cccnc3)cc1)c1nnc(C)n1-2` the IC50 (Hep 3B2 [1]) was 4550 nM, the IC50 [2] was 199 nM and the IC50 [3] was 129 nM.
Compound `Cc1sc2c(c1C)C(c1ccc(Cl)cc1)=N[C@@H](CC(=O)NCCCCCNC(=O)/C=C/c1cccnc1)c1nnc(C)n1-2` has an IC50 (Hep 3B2 [1]) of 11300 nM, an IC50 [2] of 115 nM and an IC50 [3] of 387 nM.
Work on `Cc1sc2c(c1C)C(c1ccc(Cl)cc1)=N[C@@H](CC(=O)NCCOCCOCCNC(=O)/C=C/c1cccnc1)c1nnc(C)n1-2` yielded an IC50 (Hep 3B2 [1]) of 21900 nM, an IC50 [2] of 13 nM and an IC50 [3] of 525 nM.
